Assay results reported in patent US5164406A, “Method for enhancing transdermal penetration and compositions useful therein” (priority 1989, dated 1992).
Where two headings read alike, the source gives them in different places.

Procedure: Polyoxyethylene stearyl ethers, 3 wt. %
Polyoxypropylene fatty alcohol ethers, 3 wt. %
Deionized water, 94 wt. %
Further, in all cases, unless otherwise noted, the tests were carried out at 37° C. and results were compared to penetration data for the same material in the oil/water emulsion base. Moreover, all percentages of composition components recited are, unless otherwise indicated, weight percent (wt. %) and are based upon the total weight of the composition.
The test method is carried out as follows:
A. Prior to testing, rats are routinely acclimated to the laboratory environment for seven days and gross observations are made to ensure good health of the animals to be tested.
B. Female Sprague Dawley rats (190-240 gm) are selected for testing and identified by cage label and ear tag number.
C. Diffusion Cell Preparation.
1. An O-ring is placed on a standard Franz Diffusion Cell. A stir bar is placed in the receptor compartment. Each cell is filled with approximately 4.5 ml sterile physiologic saline (receptor compartments are calibrated to contain 5.0 ml).
2. The jacketed diffusion cells are maintained at 37° C.±1° (or alternatively desired temperature) using an external water bath and a circulating pump.
D. Skin Section Preparation and Mounting
1. Test animals are sacrificed by intraperitoneal injection of 0.4 ml/100 gm. body weight sodium pentobarital (1 gm/ml).
2. The backs are lightly shaved using electric hair clippers.
3. A section of skin, measuring approximately 8 cm long by 7 cm wide, is removed from the back of each rat using a No. 20 scalpel assuring that the skin section is free from subcutaneous fat.
4. A piece of the skin section is mounted over an O-ring on the diffusion cell, epidermal side facing up. The donor compartment is placed on top of the skin section making a complete seal over the skin. A clamp is used to secure the skin section in place.
5. Air bubbles that collect under the skin are removed by inverting the diffusion cell and tapping it gently. The receptor compartment is filled with sterile physiologic saline to 5.0 ml.
E. Application of Test Materials
1. Test and control materials are applied to the skin using s syringe or spatula. The material is spread evenly and completely over the exposed skin surface using the tip of the syringe/spatula.
1. An HPLC carousel is loaded with microvials. Springs and inserts are placed into the microvials.
2. Receptor compartments are sampled at desired time intervals using a microliter (μl) syringe. The sample (approximately 160 μl) is placed into the insert. The microvial is sealed with a plastic cap.
3. When multiple sampling is required, the receptor compartment is replenished with sterile physiologic saline to maintain a 5.0 ml volume.
Samples are analyzed using standard analytical techniques. The presence of test material in the samples is indicative of transdermal penetration.

[1] = 2% TPL in B with 0.5% imidazole derivative, Table 2, average of multiple determinations
[2] = multiple of average control determination of the same study, 2% TPL in B with 0.5% imidazole derivative, Table 2

24 hour penetration of tripelennamine HCl (total micrograms base) [micrograms base]	Increase in penetration relative to control	24 hour penetration (total micrograms base) [micrograms base]	Compound	24 hour penetration of tripelennamine HCl (total micrograms base) [1] [micrograms base]	Increase in penetration relative to control [2]
			1-cyanoethyl-2-phenylimidazole [1-CYANOETHYL-2-PHENYL IMIDAZOLE]	310	2.6
374	4.3		Cc1nccn1C [1-2 DIMETHYL IMIDAZOLE, 1,2-dimethylimidazole]		
479	2.6		CC(C)=CCCC(C)=CCn1ccnc1 [1-(3,7-dimethyl-2,6-octadienyl) imidazole]		
			c1ccc(Cn2ccnc2)cc1 [1-BENZYL IMIDAZOLE]	277	1.1
463	1.8		Cc1nccn1Cc1ccccc1 [1-BENZYL-2-METHYL IMIDAZOLE]		
497	2.1		CCCCn1ccnc1 [1-BUTYL IMIDAZOLE]		
446	3.7		CCCCCCCCCCn1ccnc1 [1-DECYL IMIDAZOLE]		
479	4.0		CCCCCCCCCCCCn1ccnc1 [1-DODECYL IMIDAZOLE]		
527	2.9		CC(C)n1ccnc1 [1-ISOPROPYL IMIDAZOLE]		
			Cn1ccnc1 [1-METHYL IMIDAZOLE]	728	3.0
			c1ccc(-n2ccnc2)cc1 [1-PHENYL IMIDAZOLE]	450	1.8
615	2.6		Cc1ncc[nH]1 [2-METHYL IMIDAZOLE]		
			c1ccc(-c2ncc[nH]2)cc1 [2-PHENYL IMIDAZOLE]	435	1.7
554	2.2		CCCc1ncc[nH]1 [2-PROPYL IMIDAZOLE]		
			CCCCCCCCCCCCCCCCCc1ncc[nH]1 [2-[…]]	358	1.5
149	1.2		Cc1nc[nH]c1CO [4-(HYDROXYMETHYL) 5-METHYL IMIDAZOLE]		
			NNC(=O)c1c[nH]cn1 [4-CARBOXYLIC ACID HYDRAZIDE IMIDAZOLE]	143	1.7
			OCc1c[nH]cn1 [4-HYD[…], 4-hydroxymethyl imidazole]	224	3.2
			Cc1c[nH]cn1 [4-METHYL IMIDAZOLE]	477	3.9
142	1.2		O=[N+]([O-])c1c[nH]cn1 [4-NITRO IMIDAZOLE]		
			c1ccc(-c2c[nH]cn2)cc1 [4-PHENYL IMIDAZOLE]	368	3.0
		87.5	CC(=O)Oc1ccccc1C(=O)O [ASA, ASPIRIN, reference compound]		
197	2.8		N[C@H](Cc1c[nH]cn1)C(=O)O [D-HISTIDINE, D-histidine]		
